Experiment: Chemical stability of calcipotriol in contact with container inner coating
Type: physicochemical

Q: For `C=C1/C(=C\C=C2/CCC[C@]3(C)[C@@H]([C@H](C)/C=C/[C@@H](O)C4CC4)CC[C@@H]23)C[C@@H](O)C[C@@H]1O` [calcipotriol], which “chemical stability of calcipotriol” value (epoxyphenol resin inner lacquer) is on record?
A: unacceptable chemical degradation

Q: And the “chemical stability of calcipotriol” value (polyimide-polyamide resin as inner coating)?
A: satisfactory
